In patent US20230271950A1, “ANTIBACTERIAL PICOLINAMIDE COMPOUNDS” (University of Notre Dame Du Lac, priority 2020, published 2023):
≈ marks a conversion by molar mass, not a printed value. Like-named read-outs stand apart in the source and are kept apart here.

What was measured:
[1] = tested on: Fecal microbiota preparation; assay: MIC against fecal microbiota preparation; assay type: cell-based; settings: Fecal microbiota preparation from OpenBiome tested at 1000-fold dilution
Method: Minimum inhibitory concentrations (MIC). MICs for C. difficile strains and the common gut bacteria were determined using broth microdilution techniques as reported earlier using brucella broth supplemented with hemin and vitamin K or supplemented BHIS broth. Lactobacillus MRS broth was used for lactobacillus strains. Sodium lactate was supplemented in the media for Veillonella sp. […] All incubations, unless specified otherwise, were carried out at 24 h or 48 h at 37° C. in an anaerobic chamber (Whitley DG250 workstation, Microbiology International, Frederick, Md.). Corynebacterium and Lactobacillus species were incubated aerobically.

[2] = tested on: C. difficile strain ATCC43255; assay: Serial passage for development of resistance; assay type: cell-based, Clostridioides difficile; settings: for increase of MIC on serial passage: C. difficile ATCC43255, 25 passages; for MIC: Clostridioides difficile
[3] = tested on: HeLa cells; assay: XTT cytotoxicity assay with HeLa cells; assay type: cell-based; settings: Homo sapiens
Method: XTT assay. Cytotoxicity assays were performed in triplicate against HeLa cells (ATCC CCL-2). The IC50 values were calculated by nonlinear regression with GraphPad Prism 5 (San Diego, Calif.).
XTT assay. XTT assays were performed with HeLa cells (ATCC CCL-2) in triplicate, as previously described (Lancet 2008, 371, 1486). IC50 values were determined by nonlinear regression using GraphPad Prism 5 (San Diego, Calif.).

[4] = Pharmacokinetics study in mice (plasma and feces levels); assay type: in vivo; settings: for concentration at 8 h: female, CD-1, mouse
Method: Pharmacokinetics (PK) study. Mice (n=2 per time point) were given a single 100 μL solution of 5 mg/mL of compound 1 (equivalent to 20 mg/kg). Terminal blood was collected in heparinized syringes by cardiac puncture at 30 min, 1 h, 2 h, 4 h, and 8 h. The two mice at the 8-h time point were place in metabolism cages for collection of feces. Compound 1 was dissolved in 5% DMSO/95% water with 96 mg/mL of sodium bicarbonate. Blood was centrifuged at 1,000 g for 20 min at 4° C. and plasma was separated and stored at −80° C. until analysis. A 45-μL aliquot of plasma was mixed with 5 μL of H2O:ACN (1:1) and was quenched with 100 μL of acetonitrile containing 20 μM of internal standard (compound 10). The sample was centrifuged at 21,000 g for 15 min at 4° C. to precipitate the proteins, and the resulting supernatant was analyzed by UPLC-TQD detector using multiple-reaction monitoring (MRM). Calibration curves for compound 1 were prepared from 0 to 102.4 μM using a control mouse plasma (50 μL). Peak area ratios relative to internal standard and linear regression was used from which the concentrations in plasma samples from the PK study were determined.
An average of 250 mg of feces were collected at 8 h from two mice, and subsequently homogenized with 6 times the feces volume (1,500 μL of H2O:ACN 1:1) using a Bullet Blender (Next Advance, Inc., Troy, N.Y.). The homogenate was centrifuged at 21,000 g for 5 min. The fecal supernatant (72 μL) was mixed with 8 μL of a solution of H2O:ACN (1:1) and 40 μL of 50 μM of the internal standard in ACN with 0.5% formic acid. A calibration curve was prepared from 0 μM to 102.4 μM in control mouse feces. Plasma and feces were analyzed on a Waters TQD tandem quadrupole detector (Waters Corporation, Milford, Mass.) using a YMC-Triart C18 100 mm×2.0 mm column (3μ, YMC Co. Ltd, Kyoto, Japan). The chromatographic conditions consisted of elution with 30% H2O/70% ACN containing 0.10% formic acid for 5 min at a flow rate 0.5 mL/min. Mass Spectrometry acquisition was performed in the positive electrospray ionization mode with MRM. The capillary, cone, extractor and RF lens voltages were set at 2.8 kV, 40 V, 1 V and 0.1 V, respectively. The desolvation and cone gas (nitrogen) flow rates were 650 L/h and 50 L/h, respectively. The source temperature was set at 150° C. The desolvation temperature was 350° C. The MRM transitions used were 459.4→254.0 for compound 1, and 294.8→133.5 for the internal standard.
Animals. Female C57BL/6 mice weighing 18-20 g and 6-8 weeks of age were used for the efficacy study (Jackson, Bar Harbor, Me.). Female CD-1 mice (24-31 g and 7-8 weeks of age) were used for the PK study. They were housed in groups of five mice in sterile polycarbonate shoeboxes with bedding consisting of ¼-inch corncob (The Andersons Ind., Maumee, Ohio) and Alpha-Dri (Shepherd Specialty Papers, Inc., Richland, Mich.). Mice were maintained on a 12-h light/dark cycle at 72° F. and were given Teklad 2918 irradiated extruded rodent diet and water ad libitum. All procedures were performed in accordance with and approved by the University of Notre Dame Institutional Animal Care and Use Committee.
Pharmacokinetics (PK) Studies. Compounds 4, 87, 107, and 108 were dissolved in 10% DMSO, 25% propylene glycol, 15% Tween 80 and 50% water at concentrations of 5 mg/mL or 10 mg/mL. Compound 116 was dissolved in 5% DMSO, 95% water with 96 mg/mL of sodium bicarbonate. Mice (n=2 per time point) were given a single 100 μL oral gavage of the test compound (equivalent to either 10 mg/kg and/or 20 mg/kg), and terminal blood was collected in heparinized syringes by cardiac puncture at 30 min, 1 h, 2 h, 4 h, and 8 h. An average of 250 mg of feces were collected after 8 h from two mice housed in metabolism cages in each group for further analysis. Blood was centrifuged at 1000 g for 2 min at 4° C. to obtain plasma. Plasma and fecal samples were stored at −80° C. until analysis. […]

[5] = tested on: stationary-phase C. difficile; assay: Time-kill assay, stationary-phase C. difficile; assay type: cell-based, Clostridioides difficile; settings: 8×, 16×, and 32×MIC
Method: Time-kill assay. […] A control tube without antibiotic was also included. At intervals of 4, 8, and 24 h, 100-μL aliquots of the cultures were plated onto pre-reduced brain heart infusion broth agar media for colony counts. […] The experiment was done in triplicate.

[6] = tested on: CDI; settings: patients treated with the antibiotic; cited from earlier work
[7] = 20 mg/kg single oral administration
[8] = single oral gavage, dose 20 mg · kg^−1, feces collected after 8 h, read-out: Drug concentration in fecal samples (mg kg^−1 feces)

In the case of O=C(O)c1ccc2oc(NC(=O)c3cc(Oc4cccc(OC(F)(F)F)c4)ccn3)nc2c1 [Compound 1, Sodium 2-(4-(3-(trifluoromethoxy)phenoxy)picolinamido)benzo[d]oxazole-5-carboxylate], the MIC [1] is reported as greater than 128 µg/mL, the “increase of MIC on serial passage” value [2] is reported as 8 fold and the MIC ([2]; ATCC43255, read-out: MIC after serial passage) is reported as 1 µg/mL. For the same compound, the MIC ([2]; ATCC43255, read-out: starting MIC in serial passage) was 0.125 µg/mL, the IC50 [3] was 179 ± 4 µg/mL and the IC50 ([3]; Table 6) was 179 µg/mL. The Concentrations in plasma [4, 7] was “non-quantifiable”, the “levels in feces higher than the MIC for C. difficile ATCC 43255” value [4, 7] was greater than 100 fold and the “Conc. feces/MIC” value ([4]; dose 20 mg · kg^−1) was 108. For the same compound, the concentration at 8 h ([4]; 20 mg/kg single oral administration, feces collected at 8 h, read-out: levels in feces) was 13000 ng/g, the “Drug concentration in fecal samples (mg kg^−1 feces)” value ([4]; single oral gavage, dose 20 mg · kg^−1, feces collected after 8 h) was 13 mg/kg and the “reduction of C. difficile stationary-phase growth” value [5] was 2 log10.
For O=C(Nc1ncco1)c1ccnc(-c2ccc(Cl)c(Cl)c2)c1 [Compound 4, 2-(3,4-Dichlorophenyl)-N-(oxazol-2-yl)isonicotinamide], the IC50 ([3]; Table 6) was 79.9 ± 1 µg/mL (≈ 239 µM), the “Conc. feces/MIC” value ([4]; dose 20 mg · kg^−1) was 11 and the concentration at 8 h [4, 8] was 2800 ng/g.
For O=C(Nc1ncco1)c1cc(-c2ccc(Cl)c(Cl)c2)ccn1 [Compound 87, 4-(3,4-Dichlorophenyl)-N-(oxazol-2-yl)picolinamide], the IC50 ([3]; Table 6) was 95.2 ± 1 µg/mL (≈ 285 µM), the “Conc. feces/MIC” value ([4]; dose 10 mg · kg^−1) was 6.6 and the concentration at 8 h ([4]; single oral gavage, dose 10 mg · kg^−1, feces collected after 8 h, read-out: Drug concentration in fecal samples (mg kg^−1 feces)) was 790 ng/g.
In the case of O=C(Nc1ncco1)c1cc(Oc2cccc(OC(F)(F)F)c2)ccn1 [Compound 108, N-(Oxazol-2-yl)-4-(3-(trifluoromethoxy)phenoxy)picolinamide], the IC50 ([3]; Table 6) is reported as 93.3 ± 1.7 µg/mL (≈ 255 µM), the “Conc. feces/MIC” value ([4]; dose 20 mg · kg^−1) is reported as 49 and the concentration at 8 h [4, 8] is reported as 49000 ng/g.
In the case of CCc1c(Cl)c(O)c(Cl)c(O)c1C(=O)O[C@H]1[C@H](O)[C@H](OC)[C@H](OC/C2=C\C=C\C[C@H](O)/C(C)=C/[C@H](CC)[C@@H](O[C@@H]3OC(C)(C)[C@@H](OC(=O)C(C)C)[C@H](O)[C@@H]3O)/C(C)=C/C(C)=C/C[C@@H]([C@@H](C)O)OC2=O)O[C@@H]1C [FDX, fidaxomicin, reference compound], the “Recurrence of CDI” value [6] is listed as 15% and the MIC [1] is listed as greater than 128 µg/mL.
Compound Cc1ncc([N+](=O)[O-])n1CCO [MTZ, metronidazole, reference compound] has an MIC [1] greater than 128 µg/mL.
For CN[C@H](CC(C)C)C(=O)N[C@H]1C(=O)N[C@@H](CC(N)=O)C(=O)N[C@H]2C(=O)N[C@H]3C(=O)N[C@H](C(=O)N[C@H](C(=O)O)c4cc(O)cc(O)c4-c4cc3ccc4O)[C@H](O)c3ccc(c(Cl)c3)Oc3cc2cc(c3O[C@@H]2O[C@H](CO)[C@@H](O)[C@H](O)[C@H]2O[C@H]2C[C@](C)(N)[C@H](O)[C@H](C)O2)Oc2ccc(cc2Cl)[C@H]1O [VAN, vancomycin, reference compound], the “Recurrence of CDI” value [6] is listed as 25%, the MIC [1] is listed as greater than 128 µg/mL and the “increase of MIC on serial passage” value [2] is listed as 8 fold. The MIC ([2]; C. difficile ATCC43255, sub-MIC concentrations, 25 passages, read-out: MIC after serial passage) was 4 µg/mL (≈ 2.76 µM) and the “reduction of C. difficile stationary-phase growth” value [5] was 1 log10.
